The IC50 is the concentration that gives 50% inhibition.

In one series the test system is COX in HeLa cells. Put plainly: COX activity assay (kit) in treated cells. The series is classed as cell-based, human. The note with it: 24 h, 1× IC50,72h, vs untreated control. The procedure: The results are expressed relative to the COX activity of untreated control.
HeLa cells were seeded in 6-well plates at a density of 10^5 cells/well and incubated overnight. The cells were treated with the tested compounds at concentrations corresponding to 1× IC50. Following a 24 h treatment, the cells were lyzed with radioimmunoprecipitation assay (RIPA) buffer supplemented with proteinase inhibitors on ice for 10 min. The extracts were cleared with centrifugation (12,000g/5 min), and protein content was determined using Bradford assay. COX activity was determined with a COX Activity Assay Kit (Abcam). 6 μg of protein was used in the reaction. The experiment was set up according to the manufacturer’s instructions. The fluorescence (Ex/Em 535/587 nm) was read in a kinetic mode, and the COX inhibition was expressed as a percentage of the activity of the untreated control.

A further series concerns HeLa. Description: MTT antiproliferative assay, 72 h. The series is classed as cell-based, human. The note with it: for increase of antiproliferative activity relative to Pt(IV) complex 2: IC50, Table 1; for IC50: MTT, 72 h incubation, mean ± SD, read-out: IC50 HeLa. The procedure: (§1) Cells were treated with the tested compounds in a final volume of 200 μL/well. […] Calbiochem, Darmstadt, Germany) was added, and the cells were incubated for an additional 2–4 h. The medium was removed, and the insoluble formazan product was dissolved in 100 μL/well DMSO. The absorbance was read at 570 nm (vs 620 nm) using an Absorbance Reader (SUNRISE TECAN SCHOELLER). The read values were converted to the percentage of control. […] All experiments were made in triplicate.

Another series concerns A2780cisR. Description: MTT antiproliferative assay, 72 h. The series is classed as cell-based, human. The note with it: MTT, 72 h incubation, mean ± SD; read-out: IC50 A2780cisR. The procedure:
as §1

The subject of a further series is MCF-7. Description: MTT antiproliferative assay, 72 h. Type of series: cell-based, human. The note with it: MTT, 72 h incubation, mean ± SD; read-out: IC50 MCF-7. The method, then: as §1
For orientation: Formazan colour is commonly taken as a measure of viable cells.

A further series deals with MDA-MB-231. Put plainly: MTT antiproliferative assay, 72 h. The series is classed as cell-based, human. The note with it: MTT, 72 h incubation, mean ± SD; read-out: IC50 MDA-MB-231. The procedure:
as §1

The subject of a further series is A2780. Description: MTT antiproliferative assay, 72 h. Type of series: cell-based, human. The note with it: MTT, 72 h incubation, mean ± SD; read-out: IC50 A2780. The method, then: as §1
The next series relates to HCT-116. Put plainly: MTT antiproliferative assay, 72 h. Type of series: cell-based, human. The note with it: MTT, 72 h incubation, mean ± SD; read-out: IC50 HCT-116. The procedure: as §1
The test system of series [1] is HeLa cells. Description: Wound healing assay. Type of series: cell-based, human. The note with it: 24 h, multiples of IC50,72h. The procedure:
Figure 7 (A–E) Wound healing assay. The monolayer of HeLa cells was scratched with a 10 μL tip, and a starving medium containing the tested complexes was added. The shots were taken at times 0 and 24 h. (A) Control, non-treated cells; (B) cells treated with complex 3; (C) cells treated with complex 4. […] (E) Evaluation of wound healing assay. Bars represent gap size vs. Control (100%), following a 24 h incubation with the investigated compounds. Light gray bars: complex 3; dark gray bars: complex 4; black bar: complex 2. (F) Re-adhesion assay. […] Following trypsinization, the cells were resuspended in Dulbecco’s modified Eagle medium (DMEM), counted, left to reconstitute adhesive membrane proteins for 30 min, and re-seeded at the density of 3× 10^4 cells/100 μL/well. After 30 min of incubation at 37 °C, the re-adhesion activity was determined as described in the Experimental Section. Data represents mean ± SD, n = 8; *p < 0.05, **p < 0.01, ***p < 0.001.
HeLa cells were grown close to confluence in 6-well plates in a complete medium, and then the medium was replaced with a serum-free medium [supplemented with 0.1% bovine serum albumin (BSA)], and the cells were incubated for an additional 24 h. The HeLa monolayers were scratched with a 10 μL pipet tip, and the cells were washed twice with PBS to remove peeled cells and treated with tested compounds at indicated concentrations. The scratched areas were shot immediately after the complex addition and then after 24 h with a Canon EOS 1200D camera attached to an Olympus CKX41 inverted microscope with a 10×/0.25 phase contrast objective. Digital images were taken by the QuickPHOTO MICRO 3.1 program (PROMICRA, Prague, Czech Republic) and processed with the TScratch analysis software (ETH Zürich, Switzerland). The cell’s ability to migrate into the open area was expressed as a percentage of control.

Series [2] can be described thus: Partition coefficient, shake-flask method. The series is classed as physicochemical. The note with it: octanol/water. The procedure:
The “shake flask” method was used to measure the partition coefficients (P) of platinum compounds. The compounds were dissolved in octanol-saturated water (OSW) containing 200 mM NaCl. […] After careful separation of the layers with a fine-tip pipet, the Pt content in individual phases was determined by flameless atomic absorption spectrometry. The partition coefficients were calculated as the concentration ratio of the compound in the octanol layer to that in the aqueous layer, log P = log([Pt]WSO/[Pt]OSW).

The test system of series [3] is HeLa cells. Description: Lactate production. The note with it: 6 h, 5× IC50, free DCF at concentrations 380–770 times higher. The series is classed as cell-based, human.
Procedure: Figure 3 (A) Lactate production. Relative lactate concentration in medium following a 6 h treatment of HeLa cells with the investigated compounds at concentrations corresponding to 5× IC50. […] Data represents mean ± SD, n = 2–4; asterisks indicate a statistically significant difference from the untreated control (*p < 0.01, **p < 0.005, ***, ***p < 0.001).
HeLa cells were seeded (1 × 10^5 cells/well) and grown in 12-well plates, treated with platinum agents, and diclofenac for 6 h. Lactate concentration in the culture medium was measured using a colorimetric Lactate Assay Kit (Sigma-Aldrich) following the manufacturer’s instructions. […] The amount of lactate in individual samples was determined from a standard curve and expressed as a percentage of non-treated control.
In series [4] the test system is DNA isolated from HeLa cells. Put plainly: Pt associated with DNA isolated from treated HeLa cells. Type of series: cell-based, human. The note with it: 1 µM compound, 6 h, mean ± SD. From the text:
page 16: Table S1: […] concentration of tested compounds for 6 ha. […] Figure S19: A. Representative histograms obtained by flow cytometric analysis of calreticulin exposure in HeLa cells treated with indicated compounds. B. An example of gating DAPI negative population. Only DAPI-negative cells were taken for the evaluation.

On to `Cc1c(C)c2c3c4c1=CC=C[N]4[Pt]([Cl])[N]3C=CC=2.NCCNC(=O)Cc1ccccc1Nc1c(Cl)cccc1Cl.N[C@H]1CCCC[C@@H]1N` [complex 3, Pt(IV)56MESSenDCFCl], for which the “inhibition of COX activity” value in the series on COX in HeLa cells is “slightly but significantly inhibited COX-2 activity”. In addition, the “increase of antiproliferative activity relative to Pt(IV) complex 2” value in the series on HeLa turned out to be 4.5 fold. The IC50 with HeLa was determined as 600 ± 100 nM; in the series with A2780cisR, 130 ± 20 nM; in the series on MCF-7, 400 ± 100 nM; with MDA-MB-231 it was 400 ± 100 nM; with A2780, 120 ± 20 nM; in the series on HCT-116, 200 ± 30 nM. In addition, the “migration activity (wound closing)” value in the series with HeLa cells [1] is listed as “reduced the ability of HeLa cells to close artificial wounds”. Further, the “log P” value in series [2] is on record as “–1.7 ± 0.1”. Further, in the series on HeLa cells [3], the “lactate excreted into media” value is reported as “considerably reduced”. In series [4], the “amount of Pt associated with DNA” value is 2.3 ± 0.2 pg Pt/µg DNA.
For `Cc1c(C)c2c3c4c1=CC=C[N]4[Pt][N]3C=CC=2.NCCNC(=O)Cc1ccccc1Nc1c(Cl)cccc1Cl.NCCNC(=O)Cc1ccccc1Nc1c(Cl)cccc1Cl.N[C@H]1CCCC[C@@H]1N` [complex 4, Pt^IV56MeSS(DCF)2], the “inhibition of COX activity” value in the series with COX in HeLa cells is on record as “slightly but significantly inhibited COX-2 activity”. Also, in the series on HeLa, the “increase of antiproliferative activity relative to Pt(IV) complex 2” value is 9 fold. In addition, the IC50 with HeLa is 310 ± 80 nM; in the series with A2780cisR, 80 ± 20 nM; in the series on MCF-7, 330 ± 50 nM; with MDA-MB-231, 290 ± 40 nM; with A2780, 50 ± 10 nM; in the series with HCT-116 it was 180 ± 50 nM. Besides, the “migration activity (wound closing)” value with HeLa cells [1] is on record as “reduced the ability of HeLa cells to close artificial wounds”. In series [2], the “log P” value is recorded as “–1.4 ± 0.1”. Besides, the “lactate excreted into media” value with HeLa cells [3] is reported as “considerably reduced”. Besides, the “amount of Pt associated with DNA” value in series [4] is given as 4.6 ± 0.3 pg Pt/µg DNA.

For the origin of these results see PMC10291556 (Journal of Medicinal Chemistry, 2023).
